Source: patent US20070185119A1, “Therapeutic agents II” (ASTRAZENECA AB, priority 2004, published 2007)

Target: T1, human Melanin concentrating hormone receptor 1 (MCH1r) (Homo sapiens, UniProt Q99705)
T1 construct: expressed in transfected cells; host or cells: CHO-K1 cells (membranes)
Assay: MCH1 receptor radioligand binding (125I-MCH, CHO-K1 cell membranes)
Settings: human MCHr binding assay
Protocol: MCH1 Receptor Radioligand Binding.
Assays were performed on membranes prepared from CHO-K1 cells expressing the human Melanin concentrating hormone receptor 1 (MCH1r). Assays were performed in a 96-well plate format in a final reaction volume of 200 μl per well. Each well contained 6 μg of membrane proteins diluted in binding buffer (50 mM Tris, 3 mM MgCl2, 0.05% bovine serum albumin (BSA) and the radioligand ^125I-MCH (IM344 Amersham) was added to give 10 000 cpm (counts per minute) per well. Each well contained 2 μl of the appropriate concentration of competitive antagonist prepared in DMSO and left to stand at 30° C. for 60 minutes. Non-specific binding was determined as that remaining following incubation with 1 μM MCH (Melanin concentrating hormone, H-1482 Bachem). The reaction was terminated by transfer of the reaction to GF/A filters using a Micro96 Harvester (Skatron Instruments, Norway). Filters were washed with assay buffer. Radioligand retained on the filters was quantified using a1450 Microbeta TRILUX (Wallac, Finland).
Non-specific binding was subtracted from all values determined. Maximum binding was that determined in the absence of any competitor following subtraction of the value determined for non-specific binding. […]

T1 sequence (Q99705 whole entry): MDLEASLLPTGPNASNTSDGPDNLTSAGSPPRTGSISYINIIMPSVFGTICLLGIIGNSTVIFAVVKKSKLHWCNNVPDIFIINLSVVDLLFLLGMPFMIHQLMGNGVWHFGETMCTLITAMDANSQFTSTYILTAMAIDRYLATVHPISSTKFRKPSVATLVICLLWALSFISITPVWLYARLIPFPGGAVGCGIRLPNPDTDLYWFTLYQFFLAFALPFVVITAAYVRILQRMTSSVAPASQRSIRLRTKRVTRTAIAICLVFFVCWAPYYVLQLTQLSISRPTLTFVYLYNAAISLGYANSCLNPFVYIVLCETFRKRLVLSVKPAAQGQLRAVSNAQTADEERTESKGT

IC50: 15 nM
Structure (SMILES): CN(C)c1nc(N[C@H]2CCC[C@H](NCc3cn(C)c4ccccc34)C2)nc2ccccc12 (relative stereo) [Example 4, N^4,N^4-dimethyl-N^2-(-3-{[(1-methyl-1H-indol-3-yl)methyl]amino}-trans-cyclohexyl)quinazoline-2,4-diamine]
